Results reported in doi:10.1101/2024.03.08.584059, “AllTheBacteria: a community resource empowers biology and discovers novel peptide antibiotics” (bioRxiv, 2026).
“Also recorded” adds a separate entry of the source. Ends that are not written are not given here. Peptide text beside a SMILES is read from it.

Assays:
A. baumannii ATCC 19606 [1] = test: NPN uptake outer membrane permeabilization assay; format: cell-based, Acinetobacter baumannii
Procedure: (§1) We next tested whether ATB peptides act primarily by disrupting the bacterial membrane, we assessed their ability to depolarize the cytoplasmic membrane and permeabilize the outer membrane of A. baumannii ATCC 19606 at their MICs using DiSC3-5 and NPN uptake assays, respectively. […] Fluorescence data were analysed in terms of both maximal signal over time and time-resolved kinetic profiles.
N-phenyl-1-napthylamine (NPN) uptake assay was used to evaluate the ability of the peptides to permeabilize the bacterial outer membrane. Inocula of A. baumannii ATCC 19606 were grown to an OD at 600 nm of 0.4 mL^−1, centrifuged (9,391 ģ at 4 °C for 10 min), washed and resuspended in 5 mmol L^−1 HEPES buffer (pH 7.4) containing 5 mmol L^−1 glucose. The bacterial solution was added to a white 96-well plate ([…] per well) together with […] of NPN at 0.5 mmol L^−1. Consequently, peptides diluted in water were added to each well, and the fluorescence was measured at lex = 350 nm and lem = 420 nm over time for 45 min. The relative fluorescence was calculated using the untreated control (buffer + bacteria + fluorescent dye) and polymyxin B (positive control) as baselines and the following equation was applied to reflect % of difference between the baselines and the sample: Percentagedifference=100*flurescencesample-flurescenceuntreatedcontrol/flurescenceuntreatedcontrol

[2] = system: human embryonic kidney (HEK293T) cells; settings: 24 h
Procedure: The cells were cultured in high-glucose Dulbecco’s modified Eagle’s medium supplemented with 1% penicillin and streptomycin (antibiotics) and 10% fetal bovine serum and grown at 37 °C in a humidified atmosphere containing 5% CO2.
One day prior to the experiment, 100 μL aliquots of human embryonic kidney (HEK293T) cells, at a concentration of 50,000 cells per mL, were seeded into each well of 96-well plates (5,000 cells per well). Following cell attachment, the HEK293T cells were treated with increasing concentrations of peptides (ranging from 8 to 128 μmol L^−1) and incubated for 24 h. After the exposure period, cytotoxicity was assessed using the 3-(4,5-dimethylthiazol-2-yl)-2,5-diphenyltetrazolium bromide (MTT) assay. Specifically, the MTT reagent was prepared at a concentration of 0.5 mg mL^−1 in phenol red-free medium and used to replace the peptide-containing supernatants (100 μL per well). The plates were then incubated for 4 h at 37 °C in a humidified atmosphere with 5% CO2, facilitating the formation of insoluble formazan crystals. These crystals were subsequently dissolved in 0.04 mol L^−1 hydrochloric acid prepared in anhydrous isopropanol. Absorbance was measured at 570 nm using a spectrophotometer to quantify cell viability. All experiments were conducted in triplicate (three biological replicates).
To evaluate the safety profile of the ATB peptides, we measured their cytotoxicity against human embryonic kidney (HEK293T) cells using a 3-(4,5-dimethylthiazol-2-yl)-2,5-diphenyltetrazolium bromide (MTT) viability assay and determined half-maximal cytotoxic concentrations (CC50). […]
index as the ratio CC50 (HEK293T) / MIC against A. baumannii ATCC 19606.

A. baumannii ATCC 19606 [3] = test: DiSC3-5 cytoplasmic membrane depolarization assay; format: cell-based, Acinetobacter baumannii; settings: peptides at their MICs; HEPES buffer pH 7.2, 20 mmol L^−1 glucose, 0.1 mol L^−1 KCl; 60 min; responses remained below Triton X-100; in words
Procedure: as §1
The cytoplasmic membrane depolarization assay was performed using the membrane potential-sensitive dye 3,3’-dipropylthiadicarbocyanine iodide (DiSC3-5). A. baumannii ATCC 19606 in the mid-logarithmic phase were washed and resuspended at 0.05 OD mL^−1 (optical value at 600 nm) in HEPES buffer (pH 7.2) containing 20 mmol L^−1 glucose and 0.1 mol L^−1 KCl. […] Membrane depolarization was then followed by reading changes in the fluorescence (lex = 622 nm, lem = 670 nm) over time for 60 min. The relative fluorescence was calculated using the untreated control (buffer + bacteria + fluorescent dye) and polymyxin B (positive control) as baselines and the following equation was applied to reflect % of difference between the baselines and the sample: Percentagedifference=100*flurescencesample-flurescenceuntreatedcontrol/flurescenceuntreatedcontrol

A. baumannii ATCC 19606 [4] = test: microbe, parasite or virus in culture; settings: Fig. 4 heat map; broth microdilution, LB, 10[5] bacterial cells, 0–64 μmol L^−1, 37 °C, one day, OD600; mode of replicates (triplicate)
Procedure: Figure 4. […] Briefly, 10[5] bacterial cells were incubated with serially diluted peptides (0–64 μmol L^−1) at 37 °C. Bacterial growth was assessed by measuring the optical density at 600 nm in a microplate reader one day post-treatment.

[5] = peptides at their MICs, 5 mmol L^−1 HEPES pH 7.4, 5 mmol L^−1 glucose, 45 min, rank order in words relative to bacterial baseline

| Molecule | half-maximal cytotoxic concentration (CC50) [2] [µM] | outer membrane permeabilization (NPN fluorescence response) (A. baumannii ATCC 19606 [1]; [5]) | also measured |
| --- | --- | --- | --- |
| CC[C@H](C)CCCCC(=O)N[C@@H](CCN)C(=O)N[C@H](C(=O)N[C@@H](CCN)C(=O)N[C@H]1CCNC(=O)[C@H]([C@@H](C)O)NC(=O)[C@H](CCN)NC(=O)[C@H](CCN)NC(=O)[C@H](CC(C)C)NC(=O)[C@@H](Cc2ccccc2)NC(=O)[C@H](CCN)NC1=O)[C@@H](C)O [Polymyxin B, reference compound] (HELM PEPTIDE1{[CC[C@H](C)CCCCC(=O)[*:2]].[Dab].T.[Dab].[Dab].[Dab].[dF].L.[Dab].[Dab].T}$PEPTIDE1,PEPTIDE1,5:R3-11:R2$$$V2.0; N-terminus assumed; bridges inferred) |  |  | outer membrane permeabilization (NPN fluorescence response) (A. baumannii ATCC 19606 [1]; pH 7.4): remained at or near baseline |
| MFKTNLSRVSVKRLLIWVVWWLRLKKLKKKAKKFRKK-OH [ATB60] | 9 to 12 | strong outer-membrane permeabilization; also recorded: largest NPN responses | cytoplasmic membrane depolarization signal (DiSC3-5 fluorescence) (A. baumannii ATCC 19606 [3]): larger depolarization signals |
| MIKVSKLVVAKKLNLRKKLKKYLKKPKLGKILLL-OH [ATB12] | 20 to 100 |  |  |
| MIMATKLIKKNKFAKELFSRKYKPRVIKPKKGKGSFKRKKR-OH [ATB99] |  | largest NPN responses |  |
| MKILKKNMHNKILPMVSHKKWMMLIKRLKTLGRIKK-OH [ATB56] | 20 to 100 |  |  |
| MKKLIRNIIYSKLKFLWRWHRPLIIQRRNL-OH [ATB65] | 5 to 6 | strong outer-membrane permeabilization; also recorded: largest NPN responses | cytoplasmic membrane depolarization signal (DiSC3-5 fluorescence) (A. baumannii ATCC 19606 [3]): larger depolarization signals |
| MKKLKIKKLKIKKLKIKKLKIKKLKSGLRSQ-OH [ATB2] |  | only minor NPN increases |  |
| MKLKKLIKFFAFAKGISLLSRRPVRKRTGGLLKKYLAWKYLRRR-OH [ATB6] | 20 to 100 |  |  |
| MLGRKGLRSVWNGRLNVRKRRQNVRLRKNVRRKNVPKPSVWLI-OH [ATB39] | 20 to 100 |  | cytoplasmic membrane depolarization signal (DiSC3-5 fluorescence) (A. baumannii ATCC 19606 [3]): larger depolarization signals |
| MLKGLKKFKWLKKLKRRLMELNELKKFKKLMELRS-OH [ATB13] | 9 to 12 |  |  |
| MLKLLKKLQMHLLKKLQKEKLLLNLQKKTLKRKRFRHA-OH [ATB61] | 20 to 100 | largest NPN responses |  |
| MLKLLSIKLKSKKKILRMTLTKLNKWLKTKKKWLRNLKTM-OH [ATB5] | 9 to 12 | only minor NPN increases | Minimal Inhibitory Concentration, A. baumannii ATCC 19606 (-) (A. baumannii ATCC 19606 [4]): 1 µmol/L |
| MNKIILRVKKMLKNIKLKNNGIRKYNVKMEVKLVYFK-OH [ATB63] |  | largest NPN responses | cytoplasmic membrane depolarization signal (DiSC3-5 fluorescence) (A. baumannii ATCC 19606 [3]): larger depolarization signals |
| MRIKLHLRLAFLRFRKKKSLSRLKPISKIRSK-OH [ATB76] | 9 to 12 | strong outer-membrane permeabilization; also recorded: largest NPN responses |  |
| MRSLKRQLLKHKAVKLSIKKWQFLRKLKLVPKRH-OH [ATB18] | 9 to 12 |  |  |
| MSLKKIAKLLANKKVRKIAWMLISHPKFIKMLKNSIKRR-OH [ATB55] | 5 to 6 |  |  |
| MSLRKKLFVKTMLRVKIKKQSKQRLQKTKRLLQKLKRPWM-OH [ATB3] | 20 to 100 |  |  |
| MTKHAIAAKSLLKKWIISRPLNMKKKSSPFQKIRKMFKRFFK-OH [ATB25] | 5 to 6 |  |  |
| MTKLKMYLKKVRKNANNSTKQWKYGLPVRNAKLWNNFQPKK-OH [ATB51] | 20 to 100 |  |  |
